Laboratory results: patent publication US20240335569A1, “FIBROBLAST ACTIVATION PROTEIN INHIBITORS AND USE THEREOF” (3 B PHARMACEUTICALS GMBH, priority 2021, published 2024)

Tests used:
[1] = target: FAP-expressing human WI-38 fibroblasts (Homo sapiens (Human), UniProt Q12884); assay: FACS binding assay (competitive, Cy5-labeled 3BP-2935); details: for pIC50 (FACS): FAP-expressing WI-38 fibroblasts
Description: In order to determine binding of compounds according to the present invention to FAP-expressing cells, a competitive FACS binding assay was established. […] Cells were diluted in FACS buffer to a final concentration of 100.000 cells per ml and 200 μl of the cell suspension are transferred to a u-shaped non-binding 96-well plate (Greiner). […] Cell were washed twice with FACS buffer (see above) and resuspended in 200 μl FACS buffer. Cells were analyzed in an Attune NxT flow cytometer (Thermo Fisher Scientific). Median fluorescence intensities (Cy5 channel) were calculated by Attune NxT software and plotted against test compound concentrations. Four parameter logistic (4PL) curve fitting and pIC50 calculations were performed using ActivityBase software.

[2] = target: T1, Human recombinant FAP (Homo sapiens (Human), UniProt Q12884); assay: FAP protease activity assay (human), FRET-based; type: biochemical; details: for pIC50 (Activity): recombinant human FAP, FRET protease activity
Description: (§1) In order to determine the inhibitory activity a FRET-based FAP protease activity assay was established.
Four parameter logistic (4PL) curve fitting and pIC50 calculations were performed using ActivityBase software (IDBS).
Target sequence in this assay (Q12884 26-760): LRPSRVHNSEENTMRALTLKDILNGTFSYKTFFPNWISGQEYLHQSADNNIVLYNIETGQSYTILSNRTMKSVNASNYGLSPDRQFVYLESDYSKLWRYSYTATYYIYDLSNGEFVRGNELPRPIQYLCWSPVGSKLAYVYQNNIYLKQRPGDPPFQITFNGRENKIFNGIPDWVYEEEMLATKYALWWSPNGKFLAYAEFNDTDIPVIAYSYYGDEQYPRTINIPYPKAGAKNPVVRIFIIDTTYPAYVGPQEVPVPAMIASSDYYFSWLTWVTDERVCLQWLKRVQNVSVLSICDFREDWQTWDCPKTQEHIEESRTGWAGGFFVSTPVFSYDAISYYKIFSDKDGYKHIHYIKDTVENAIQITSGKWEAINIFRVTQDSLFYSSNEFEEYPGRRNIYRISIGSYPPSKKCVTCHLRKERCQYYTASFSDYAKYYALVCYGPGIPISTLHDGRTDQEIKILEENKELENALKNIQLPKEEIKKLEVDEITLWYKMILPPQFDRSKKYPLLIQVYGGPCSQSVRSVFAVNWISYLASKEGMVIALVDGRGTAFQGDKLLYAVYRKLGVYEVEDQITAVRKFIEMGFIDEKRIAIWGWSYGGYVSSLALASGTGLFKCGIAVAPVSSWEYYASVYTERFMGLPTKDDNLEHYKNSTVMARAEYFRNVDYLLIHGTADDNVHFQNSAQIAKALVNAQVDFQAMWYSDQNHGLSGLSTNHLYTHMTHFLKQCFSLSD

[3] = target: T1, Human recombinant FAP; assay: Surface plasmon resonance assay (Biacore T200, SCK); type: binding; details: for HL [min] (Biacore): SPR dissociation half-life
Description: Surface plasmon resonance studies were performed using a Biacore™ T200 SPR system (Cytiva, formerly GE Healthcare). Briefly, polarized light is directed towards a gold-labeled sensor surface, and minimum intensity reflected light is detected. The angle of reflected light changes as molecules bind and dissociate. […] Test compounds are contacted with the loaded surface, and a real-time interaction profile with the FAP ligand is recorded in a sensorgram. In real-time, the association and dissociation of a binding interaction is measured, enabling calculation of association and dissociation rate constants and the corresponding affinity constants. Importantly, a background response is generated due to the difference in the refractive indices of the running and sample buffers, as well as unspecific binding of the test compounds to the flow cell surface. This background is measured and subtracted by running the sample on a control flow cell coated with the same density of capture antibody in the absence of immobilized FAP. Furthermore, baseline drift correction of the binding data is performed, which is caused by slow dissociation of the captured FAP from the immobilized antibody. This drift is measured by injecting running buffer through a flow cell with the antibody and FAP immobilized to the sensor surface.
Biacore™ CM5 sensor chips were used. […] A 150 μL aliquot was transferred into plastic vials and placed into the sample rack of the Biacore™ T200 instrument. Amine Coupling Kit Reagent solutions were transferred into plastic vials and placed into the sample rack: 90 μL of 0.4 M 1-ethyl-3-(3-dimethylaminopropyl) carbodiimide (EDC), and 90 μL of 0.1 M N-hydroxysuccinimide (NHS). A 130 μL aliquot of 1 M ethanolamine-HCl, pH 8.5, was transferred into plastic vials and placed into the sample rack. The Biacore™ liquid system was set-up as follows: Separate bottles containing distilled water (1 L), Running Buffer (500 mL), as well as an empty bottle for waste were placed onto the buffer tray. A preinstalled program for immobilization was used, with an immobilization level of 7000 RU. Immobilization was performed at 25° C. The immobilization procedure of anti-FAP antibodies was performed, as described in the Table 4.
Human recombinant FAP was diluted in Running Buffer to a final concentration of 20 μg/mL. A 100 μL aliquot of human FAP-Working-Solution was transferred into plastic vials and placed into a sample rack. A 0.5 mM Compound-Stock-Solution was prepared by dissolving each compound in DMSO. For each test compound, Compound-Stock-Solutions were diluted in Running Buffer (HBST) at 500 nM and further diluted with HBST-DMSO Buffer (0.1% DMSO). SPR binding analyses for binary complexes were performed in SCK mode at 25° C. Following three SCK measurements, a baseline drift was assessed by injecting running buffer through a flow cell, with the antibody and FAP immobilized to the sensor surface.
For each test compound, SPR raw data in the form of resonance units (RU) were plotted as sensorgrams using the Biacore™ T200 control software. The signal from the blank sensorgram was subtracted from that of the test compound sensorgram (blank corrected). The blank corrected sensorgram was corrected for baseline drift by subtracting the sensorgram of a SCK run without the test compound (running buffer only). The association rate (kon), dissociation rate (koff), dissociation constant (KD), and t1/2 were calculated from Blank-normalized SPR data using the 1:1 Langmuir binding model from the Biacore™ T200 evaluation software. Raw data and fit results were imported as text files in IDBS. The pKD value (negative decadic logarithm of dissociation constant) was calculated in the IDBS excel template.
Target sequence in this assay (Q12884 whole entry): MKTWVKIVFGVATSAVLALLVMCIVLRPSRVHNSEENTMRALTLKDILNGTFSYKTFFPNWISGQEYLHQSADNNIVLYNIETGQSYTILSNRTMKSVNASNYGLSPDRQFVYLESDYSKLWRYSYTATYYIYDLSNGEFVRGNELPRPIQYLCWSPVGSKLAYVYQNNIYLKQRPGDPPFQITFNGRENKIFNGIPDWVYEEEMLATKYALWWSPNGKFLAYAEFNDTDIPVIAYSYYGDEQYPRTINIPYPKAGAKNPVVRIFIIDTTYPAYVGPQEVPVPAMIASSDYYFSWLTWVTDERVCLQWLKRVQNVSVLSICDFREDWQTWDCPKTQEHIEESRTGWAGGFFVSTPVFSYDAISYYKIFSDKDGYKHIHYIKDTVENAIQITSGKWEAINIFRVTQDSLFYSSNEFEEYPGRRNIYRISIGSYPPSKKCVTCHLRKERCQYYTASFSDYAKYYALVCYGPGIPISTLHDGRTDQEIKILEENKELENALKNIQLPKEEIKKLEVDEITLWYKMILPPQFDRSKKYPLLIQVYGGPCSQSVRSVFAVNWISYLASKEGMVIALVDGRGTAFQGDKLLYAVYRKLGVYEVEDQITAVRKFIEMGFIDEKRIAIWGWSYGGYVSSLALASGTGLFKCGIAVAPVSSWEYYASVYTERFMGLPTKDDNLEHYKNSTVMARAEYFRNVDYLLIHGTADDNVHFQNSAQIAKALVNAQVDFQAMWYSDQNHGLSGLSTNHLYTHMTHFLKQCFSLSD

[4] = target: Recombinant mouse FAP (Mus musculus (Mouse), UniProt P97321); assay: FAP protease activity assay (mouse), FRET-based; type: biochemical; details: recombinant mouse FAP, FRET protease activity
Description: as §1
Four parameter logistic (4PL) curve fitting and pIC50 calculations were performed using ActivityBase software.

[5] = target: recombinant human PREP (Homo sapiens (Human), UniProt P48147); assay: PREP protease activity assay; type: biochemical
Description: (§2) The PREP activity assay was performed using the FACS buffer (PBS including 1% FBS, Sigma-Aldrich, Cat #D8537). […] The DPP4 activity assay was performed in DPP assay buffer (25 mM Tris, pH 8.0). […] Four parameter logistic (4PL) curve fitting and pIC50 calculations were performed using ActivityBase software.

[6] = target: Recombinant human DPP4 (Homo sapiens (Human), UniProt P27487); assay: DPP4 protease activity assay; type: biochemical
Description: as §2

[7] = Plasma stability assay (mouse plasma); type: in vitro ADME; details: 37° C., 4 h
Description: In order to determine the stability of selected compounds of the invention in human and mouse plasma, a plasma stability assay was carried out. Such plasma stability assay measures degradation of compounds of the present invention in blood plasma. This is an important characteristic of a compound as compounds, with the exception of pro-drugs, which rapidly degrade in plasma, generally show poor in vivo efficacy. […] The stability is sufficient for the diagnostic, therapeutic and theragnostic use of these compounds according to the present invention.
The plasma stability samples were prepared by spiking 50 μl plasma aliquots (all sodium citrate 3.8%) with 1 μL of a 0.5 mM compound stock solution in DMSO. After vortexing, the samples were incubated in a Thermomixer at 37° C. for 4 or 6 hours. After incubation, the samples were stored on ice until further treatment. All samples were prepared in duplicates.
A suitable internal standard was added to each sample (1 μL of a 0.5 mM stock solution in DMSO). Protein precipitation was performed using two different methods depending on the compound conditions as indicated in Table 7. • A) 250 μL of acetonitrile containing 1% trifluoroacetic acid was added. […] After incubation at room temperature for 30 min, the precipitate was separated by centrifugation. To 100 μL of the supernatant 10 μL of 1% formic acid was added followed by further incubation at 60° C. for 10 min to complete the formation of the zinc chelate, if the compound contains a free DOTA moiety.
The determination of the analyte in the clean sample solutions was performed on an Agilent 1290 UHPLC system coupled to an Agilent 6530 Q-TOF mass spectrometer. The chromatographic separation was carried out on a Phenomenex BioZen XB-C18 HPLC column (50×2 mm, 1.7 μm particle size) with gradient elution using a mixture of 0.1% formic acid in water as eluent A and acetonitrile as eluent B (2% B to 41% in 7 min, 800 μL/min, 40° C.). Mass spectrometric detection was performed in positive ion ESI mode by scanning the mass range from m/z 50 to 3000 with a sampling rate of 2/sec.
From the mass spectrometric raw data, the ion currents for the double or triple charged monoisotopic signal was extracted for both, the compound and the internal standard.
Quantitation was performed by external matrix calibration with internal standard using the integrated analyte signals.
The result is stated as “% intact compound remaining after 4 h or 6 h” and means that from the amount of material at the start of the experiment the stated percentage is detected as unchanged material at the end of the experiment by LC-MS quantification. Since all compounds are more than 50% intact after at least 4 h they are considered as stable enough for diagnostic and therapeutic applications.

Chain of Recombinant human DPP4 (P27487 whole entry): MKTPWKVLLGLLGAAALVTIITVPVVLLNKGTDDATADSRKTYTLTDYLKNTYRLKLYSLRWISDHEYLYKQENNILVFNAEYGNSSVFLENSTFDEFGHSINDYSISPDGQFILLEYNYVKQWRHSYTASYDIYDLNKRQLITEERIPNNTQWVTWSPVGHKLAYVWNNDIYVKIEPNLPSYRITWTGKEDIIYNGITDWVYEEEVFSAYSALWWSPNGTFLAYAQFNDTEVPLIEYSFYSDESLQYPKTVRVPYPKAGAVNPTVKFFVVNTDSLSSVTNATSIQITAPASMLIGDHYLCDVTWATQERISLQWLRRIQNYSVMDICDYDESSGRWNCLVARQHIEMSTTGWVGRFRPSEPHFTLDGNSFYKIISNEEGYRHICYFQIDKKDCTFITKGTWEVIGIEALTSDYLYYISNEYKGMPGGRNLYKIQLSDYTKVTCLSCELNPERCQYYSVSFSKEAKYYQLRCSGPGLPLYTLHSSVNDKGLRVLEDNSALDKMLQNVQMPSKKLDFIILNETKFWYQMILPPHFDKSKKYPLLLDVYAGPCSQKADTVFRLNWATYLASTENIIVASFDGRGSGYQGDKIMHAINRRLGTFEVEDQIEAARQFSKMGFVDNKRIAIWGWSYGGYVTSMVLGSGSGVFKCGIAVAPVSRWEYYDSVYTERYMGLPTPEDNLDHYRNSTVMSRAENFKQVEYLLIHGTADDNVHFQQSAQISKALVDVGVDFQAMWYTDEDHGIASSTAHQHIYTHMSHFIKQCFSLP
Chain of Recombinant mouse FAP (P97321 whole entry): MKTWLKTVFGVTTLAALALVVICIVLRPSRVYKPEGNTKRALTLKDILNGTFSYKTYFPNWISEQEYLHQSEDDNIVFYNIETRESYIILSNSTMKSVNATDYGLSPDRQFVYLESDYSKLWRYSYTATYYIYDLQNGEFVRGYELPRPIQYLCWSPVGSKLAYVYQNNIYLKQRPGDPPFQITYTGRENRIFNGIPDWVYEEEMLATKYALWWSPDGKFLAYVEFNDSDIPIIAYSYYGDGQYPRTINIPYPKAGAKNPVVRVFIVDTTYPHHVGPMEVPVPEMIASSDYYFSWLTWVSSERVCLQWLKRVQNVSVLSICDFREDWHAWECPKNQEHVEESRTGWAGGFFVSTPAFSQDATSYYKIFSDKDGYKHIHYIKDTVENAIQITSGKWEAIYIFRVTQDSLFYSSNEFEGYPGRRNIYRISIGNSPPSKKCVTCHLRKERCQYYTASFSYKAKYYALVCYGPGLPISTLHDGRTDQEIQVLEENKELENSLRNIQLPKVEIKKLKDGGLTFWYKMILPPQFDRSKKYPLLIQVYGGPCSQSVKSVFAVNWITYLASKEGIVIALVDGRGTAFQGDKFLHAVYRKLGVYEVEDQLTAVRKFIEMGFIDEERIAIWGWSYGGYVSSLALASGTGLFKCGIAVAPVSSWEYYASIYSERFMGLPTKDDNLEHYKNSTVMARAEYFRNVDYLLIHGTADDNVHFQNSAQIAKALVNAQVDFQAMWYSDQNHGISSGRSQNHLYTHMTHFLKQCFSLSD
Chain of recombinant human PREP (P48147 whole entry): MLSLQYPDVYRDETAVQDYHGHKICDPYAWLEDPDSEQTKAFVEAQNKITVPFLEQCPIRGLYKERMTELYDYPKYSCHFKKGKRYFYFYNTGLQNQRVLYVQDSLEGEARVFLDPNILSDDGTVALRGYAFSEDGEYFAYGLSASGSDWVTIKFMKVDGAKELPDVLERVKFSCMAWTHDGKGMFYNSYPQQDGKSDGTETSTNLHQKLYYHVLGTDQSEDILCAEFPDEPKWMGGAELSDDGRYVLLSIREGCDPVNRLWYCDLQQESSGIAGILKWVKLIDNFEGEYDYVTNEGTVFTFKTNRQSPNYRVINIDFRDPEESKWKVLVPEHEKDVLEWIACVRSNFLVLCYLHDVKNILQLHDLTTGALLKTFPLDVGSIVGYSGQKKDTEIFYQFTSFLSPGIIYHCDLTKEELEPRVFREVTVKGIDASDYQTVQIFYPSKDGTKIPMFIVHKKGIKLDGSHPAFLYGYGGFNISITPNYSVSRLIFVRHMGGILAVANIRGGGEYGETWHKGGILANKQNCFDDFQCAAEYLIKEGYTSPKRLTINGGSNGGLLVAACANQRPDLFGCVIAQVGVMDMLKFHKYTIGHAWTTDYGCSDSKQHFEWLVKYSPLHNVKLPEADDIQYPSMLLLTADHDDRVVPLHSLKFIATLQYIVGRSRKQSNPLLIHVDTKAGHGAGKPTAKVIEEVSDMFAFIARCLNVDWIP
Chain of FAP-expressing human WI-38 fibroblasts (Q12884 whole entry): as the sequence (Q12884 whole entry) above

SMILES | pIC50 (FACS) [1] | pIC50 (Activity) [2] | pKD (Biacore) ([3]; SPR) | HL [min] (Biacore) [3] | pIC50 (mouseFAP) [4] | pIC50 (PREP) [5] | pIC50 (DPP4) [6] | % intact compound remaining after incubation, Mouse plasma [7] | IC50 ([1]; WI-38 fibroblasts) | IC50 ([2]; human FAP protease activity, FRET, read-out: pIC50 (Activity) (converted)) | Kd ([3]; SPR, read-out: pKD (Biacore) (converted)) | IC50 [5] | IC50 ([6]; read-out: pIC50 (DPP4) (converted))
CS(=O)(=O)c1ccc(-c2ccc3nccc(C(=O)NCC(=O)N4CC(F)(F)C[C@H]4C#N)c3c2)cc1 [Compound 3BP-3233] | 9 | 9.2 | >10.5 | 130 min | 9.1 | <6 | <6 |  |  |  |  |  | 
CS(=O)(=O)c1cccc(-c2ccc3c(C(=O)NCC(=O)N4CC(F)(F)C[C@H]4C#N)ccnc3c2)c1 [Compound 3BP-3127] | 8.7 | 9.1 | 10.1 |  | 8.9 | <6 | <6 | >95% |  |  |  |  | 
O=C(NCC(=O)N1CCC[C@H]1C(=O)c1ncco1)c1ccnc2ccccc12 [Compound 3BP-3208] | 7.9 | 8.2 | 8.6 | 0.6 min |  | 9.2 | <6 | 92% |  |  |  |  | 
CS(=O)(=O)c1ccc(-c2ccc3c(C(=O)NCC(=O)N4CCC[C@H]4C#N)ccnc3c2)cc1 [Compound 3BP-3128] | 8.2 | 8.8 | 9.2 | 4 min |  | 6.1 | <6 | >95% |  |  |  |  | 
CC(C)(C)c1nnc(C(=O)[C@@H]2CCCN2C(=O)CNC(=O)c2ccnc3ccccc23)o1 [Compound 3BP-3632] | 7.8 | 8.4 | 8.6 | 0.4 min | 8.4 | 8.9 | <6 |  |  |  |  |  | 
N#C[C@@H]1CCCN1C(=O)CNC(=O)c1ccnc2ccc(-c3ccc(C(=O)NCCCN(CC(=O)O)C(=O)CN4CCN(CC(=O)O)CCN(CC(=O)O)CCN(CC(=O)O)CC4)cc3)cc12 [Compound 3BP-3954, (S)-2,2′,2″-(10-(2-((carboxymethyl)(3-(4-(4-(2-(2-cyanopyrrolidin-1-yl)-2-oxoethylcarbamoyl)quinolin-6-yl)benzamido)propyl)amino)-2-oxoethyl)-1,4,7,10-tetraazacyclododecane-1,4,7-triyl)triacetic Acid] |  |  |  | >150 min |  |  |  |  | 3.98 nM | 1.26 nM | < 0.0316 nM | > 1000 nM | > 1000 nM
CS(=O)(=O)c1cccc(-c2ccc3nccc(C(=O)NCC(=O)N4CC(F)(F)C[C@H]4C#N)c3c2)c1 [Compound 3BP-3126] | 8.8 | 9.2 | 10.1 | 29 min | 9 | <6 | 6.1 | 78% |  |  |  |  | 
N#C[C@@H]1CC(F)(F)CN1C(=O)CNC(=O)c1ccnc2c1=CC(OCCCN1CCN(C(=O)CN3CCN4CCN5CCN(CC3)CC(=O)[O][In]([O]C(=O)C5)[O]C(=O)C4)CC1)CC=2 (some centres unmarked) [Compound 3BP-3468] | 8.7 | 9.2 | 10.5 | 69 min | 9 | <6 | <6 |  |  |  |  |  | 
CS(=O)(=O)c1ccc(-c2ccc3nccc(C(=O)NCC(=O)N4CCC[C@H]4C#N)c3c2)cc1 [Compound 3BP-3235] | 8.4 | 9.2 | 9.8 | 12 min |  | <6 | <6 |  |  |  |  |  | 
